Assay results from patent US20170266147A1, “METHODS OF INCREASING LATENCY OF ANESTHETIC INDUCTION USING KETONE SUPPLEMENTATION” (priority 2016, published 2017).

Columns and labels:
[1] = test system: glucose transporter type 1-deficiency (G1D) syndrome mouse model; test: Time until anesthetic induction (isoflurane) in G1D mice; type: in vivo; settings: for time required before anesthetic induction: relative to control mice fed a standard diet, p=0.0003 (KD), p=0.0136 (KS), p=0.0003 (KE), FIG. 4
Procedure: (§1) Animals were kept in groups of 2-5 mice under standard laboratory conditions (12 h:12 h light-dark cycle) in climate-controlled rooms at 22.0±2.0° C. Animal treatment and measuring procedures were performed in accordance with the University of South Florida Institutional Animal Care and Use Committee (IACUC) guidelines (Protocol#00000457). All efforts were made to reduce the number of animals used. The rodents were put under anesthesia once a week to perform blood draws.
(§2) All data are presented as the mean±standard error of the mean (SEM). The effects of compositions comprising ketone supplements on latency to anesthetic induction, as well as on blood βHB levels, were compared to control and/or baseline levels. Data analysis was performed using GRAPHPAD PRISM v6.0a. Results were considered significant when *p<0.05, **p<0.005, ***p<0.0005. Significance was determined by unpaired t-test.
G1D mice between 3-5 months old were chronically fed a standard rodent chow diet (SD), ketogenic diet (KD) (Table 1), standard rodent chow diet mixed with 20% ketone salt (βHB mineral salt) supplementation (SD+KS), or standard diet mixed with 20% ketone ester (1,3 butanediol-acetoacetate diester) supplementation (SD+KE) for 10 weeks. After 10 weeks, anesthesia was induced in an anesthesia chamber with isoflurane gas mixed with air, and the time until anesthetic induction was measured by a blinded observer. Ketone body levels in the blood were measured immediately after induction of anesthesia with a PRECISION XTRA® blood glucose and ketone monitoring kit.

Sprague-Dawley rats = test: Time until anesthetic induction (isoflurane) in Sprague-Dawley rats; type: in vivo, rat; settings: 7 days feeding/oral gavage, relative to standard diet fed controls, p=1.32E−6 (ketone diet), p=0.336 (ketone salt), FIG. 1
Procedure: as §1, with “pairs” for “groups”, “2 rats” for “2-5 mice”, “(Protocol#00001749).” for “(Protocol#00000457).”, “used.” for “used. The rodents were put under anesthesia once a week to perform blood draws.”
as §2, with “PRISM®” for “PRISM”
(§3) Sprague-Dawley rats were fed a standard diet, a ketone diet, or a standard diet supplemented with an oral gavage of the ketone salt βHB mineral salt for 7 days. After 7 days, anesthesia was induced in an anesthesia chamber with isoflurane gas mixed with air, and the time until anesthetic induction was measured by a blinded observer.

[2] = Blood levels of βHB after anesthetic induction in Sprague-Dawley rats; type: in vivo, rat; settings: 7 days, relative to baseline levels, p=0.0001 (ketone diet), p=2.21E−05 (ketone salt), FIG. 2
Procedure: as §2, with “PRISM®” for “PRISM”
as §3

| Compound | delay in anesthetic induction normalized to body weight ([1]; 10 weeks, relative to animals fed a standard diet, p=0.0048 (KD), p=0.0338 (KS), FIG. 5) | time required before anesthetic induction ([1]; 10 weeks) | number of seconds required before anesthetic induction (Sprague-Dawley rats) | blood levels of βHB after anesthetic induction [2] | number of seconds required before anesthetic induction ([1]; chronic 10 weeks, 20% in standard diet, relative to baseline levels, p=0.0035, FIG. 3) |
| --- | --- | --- | --- | --- | --- |
| βHB mineral salt [ketone salt] | remained significant | significant increases | significant increase | significant increase |  |
| CC(=O)CC(=O)OCCC(C)OC(=O)CC(C)=O (stereo not drawn) [ketone ester, 1,3 butanediol-acetoacetate diester] |  | significant increases |  |  | significant increase |
